In patent publication US20220380402A1, “6-HYDRAZINOADENOSINE COMPOUNDS WITH A2A ADENOSINE RECEPTOR AGONIST ACTIVITY” (ACADEMY OF MILITARY MEDICAL SCIENCES, priority 2019, published 2022):

Experiments:
A2A adenosine receptor = target: T1, A2A adenosine receptor (Homo sapiens, UniProt P29274); test: Radioligand binding test ([3H]CGS21680 displacement, hA2A HEK-293 cell membrane); settings: calculated from IC50 by Cheng and Prusoff equation; [3H]CGS21680 25 nM, Km 22 nM; 25° C., 90 minutes
T1 construct: purchased PerkinElmer Research Products (Boston, Mass.); host or cells: HEK-293 cells, stably transfected; membrane preparation
T1 sequence (P29274 whole entry): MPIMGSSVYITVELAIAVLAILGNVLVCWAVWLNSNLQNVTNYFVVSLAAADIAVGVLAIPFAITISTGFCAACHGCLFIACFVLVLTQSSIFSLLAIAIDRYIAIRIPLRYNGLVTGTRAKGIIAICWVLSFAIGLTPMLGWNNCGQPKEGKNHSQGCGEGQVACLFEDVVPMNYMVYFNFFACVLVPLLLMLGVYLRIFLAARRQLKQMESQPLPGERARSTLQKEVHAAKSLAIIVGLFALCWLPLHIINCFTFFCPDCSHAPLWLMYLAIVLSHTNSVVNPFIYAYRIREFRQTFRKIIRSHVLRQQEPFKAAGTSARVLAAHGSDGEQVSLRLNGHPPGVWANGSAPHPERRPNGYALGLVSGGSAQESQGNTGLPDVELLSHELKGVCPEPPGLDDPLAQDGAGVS
Method: [3H]CGS21680 (2-[p-(2-carboxyethyl)phenylethylamino]-5′-N-ethylformamidoadenosine, [carboxy-1-ethyl-3H(N)]; 250 μCi) was purchased from PerkinElmer Research Products (Boston, Mass.).
Cell membrane stably transfected with (human) A2A adenosine receptor was prepared in HEK-293 cells. The cell membrane was obtained from PerkinElmer Research Products (Boston, Mass.).
CGS21680 (2-[p-(2-carboxyethyl)phenylethylamino]-5′-N-ethylformamidoadenosine) was purchased from Selleck (Shanghai, CN).
The A2A adenosine receptors used were all expressed in the cell membrane. […] The specific binding percentage of [3H]CGS21680 was calculated according to the CPM value, % specific binding of [3H]CGS21680=(CPMsample−CPMLow Control)/(CPMHigh Control−CPMLow Control)*100, in which
High Control was 0.5% DMSO, Low Control was 100 μM CGS21680. The IC50 value was calculated based on the compound concentration and the specific binding percentage of [3H]CGS21680 by curve fitting.
The inhibition constant (Ki) value was calculated from the IC50 value according to the Cheng and Prusoff equation, Ki=IC50/(1+[S]/Km), in which [S] was the concentration of the radioligand (25 nM), and Km was the human A2AAR dissociation constant (22 nM) of [3H]CGS21680. The inhibition constant Ki values for Compounds 1 to 20 of the present invention binding to A2A adenosine receptor were shown in Table 1.

[1] = target: human adenosine receptor A2A (Homo sapiens, UniProt P29274); test: Adenosine receptor A2A cAMP test (LANCE Ultra cAMP, hADORA2A-HEK293 cells); format: cell-based
Chain of human adenosine receptor A2A (P29274 whole entry): as above
Source text: Experimental reagents and consumables: DMEM/F12, G418, Penicillin-Streptomycin, Versene Solution, HEPES, Hank's Buffered Saline Solution, PBS (pH 7.4, 1×, sterile), FBS, BSA Stabilizer 7.5%, Rolipram, NECA, were purchased from Gibico, Hyclone and Sigma, respectively. LANCE® Ultra cAMP kit (Eu-cAMP tracer, Ulight-anti-cAMP reagent, cAMP detection buffer) and hADORA2A-HEK293 cells were purchased from PerkinElmer Research Products (Boston, Mass.). All other reagents were of analytical grade and obtained from commercial sources. 384-well polypropylene microplate and 384-well white solid plate were purchased from Labcyte and Corning, respectively.
Cells stably expressing human adenosine receptor A2A (hADORA2A-HEK293 cells) were cultured in DMEM/F12 medium containing 10% FBS, 1× Penicillin-Streptomycin and 400 μg/ml G418 in a 37° C., 5% CO2 environment. Before the experiment, the cells were digested with Versene solution, and the cells were collected by centrifugation at 200 g at room temperature for 5 minutes, and finally resuspended with detection buffer (Hank's buffered saline solution, containing 5 mM HEPES, 0.1% BSA stabilizer and 10 μM Rolipram, pH 7.4). TECAN automated pipetting workstation was used to prepare a compound source plate by 3-fold diluting the compound in a 384-well polypropylene microplate with DMSO to form 11 concentration points, in which the 11 concentration points of the compound were 10 mM, 3.33 mM, 1.11 mM, 0.37 mM, 0.12 mM, 0.041 mM, 0.013 mM, 4.57×10^−3 mM, 1.52×10^−3 mM, 5×10^−4 mM and 1.7×10^−4 mM, respectively. Echo ultrasonic pipetting system (Labcyte) was used to transfer the test compound from the compound source plate to the detection plate, in which the volume of the compound transferred was 10 nl/well. The hADORA2A-HEK293 cell suspension was diluted with detection buffer to 30,000 cells/ml, and the cell suspension was transferred to the detection plate at a volume of 10 μl/well (300 cells/well). The detection plate was centrifuged at 150 g for 1 minute and pre-incubated at room temperature for 30 minutes. […] EnVison microplate reader (EnVision multimode plate reader, PerkinElmer) was used to test the level of cyclic adenosine monophosphate in the final solution (λex=320 nm, λem=665 nm & 615 nm). The EC50 (nM) value of the compound interacting with A2A adenosine receptor to stimulate the production of a level of cyclic adenosine monophosphate was calculated. The compound A2A receptor agonist titer was expressed as the EC50 (nM) value of the compound interacting with the A2A adenosine receptor to stimulate the production of a level of cyclic adenosine monophosphate.

A Ki (A2A adenosine receptor) of 1470 nM and a melting point of 196 °C were found for `OC[C@H]1O[C@@H](n2cnc3c(N/N=C/c4ccc(Cl)c(C(F)(F)F)c4)ncnc32)C(O)C1O` (stereo partly shown) [Compound 18] in this work.
A Ki (A2A adenosine receptor) of 1.4 nM and a melting point of 172 °C were found for `CN(C)c1ccc(/C=C/C=N/Nc2ncnc3c2ncn3[C@@H]2O[C@H](CO)[C@@H](O)[C@H]2O)cc1` [Compound 17, (2R,3R,4S,5R)-2-{6-{2-{(1E,2E)-3-[4-(dimethylamino)phenyl]allylidene}hydrazino}-9H-purin-9-yl}-5-(hydroxymethyl)tetrahydrofuran-3,4-diol] in this work.
A Ki (A2A adenosine receptor) of 15.4 nM and a melting point of 222 °C were found for `OC[C@H]1O[C@@H](n2cnc3c(N/N=C/c4ccc(-n5ccnc5)cc4)ncnc32)[C@H](O)[C@@H]1O` [Compound 12, (2R,3R,4S,5R)-2-{6-{2-[(E)-4-(1H-imidazol-1-yl)benzylidene]hydrazino}-9H-purin-9-yl}-5(hydroxymethyl)tetrahydrofuran-3,4-diol] in this work.
A Ki (A2A adenosine receptor) of 3.6 nM and a melting point of 170 °C were found for `CC(=O)Nc1ccc(/C=N/Nc2ncnc3c2ncn3[C@@H]2O[C@H](CO)C(O)C2O)cc1` (stereo partly drawn) [Compound 3, N-{4-{(E)-{2-{9-[(2R,3R,4S,5R)-3,4-dihydroxy-5-(hydroxymethyl)tetrahydrofuran-2-yl]-9H-purin-6-yl}hydrazino}methyl}phenyl}acetamide] in this work.
A Ki (A2A adenosine receptor) of 2 nM and a melting point of 202 °C were found for `OC[C@H]1O[C@@H](n2cnc3c(N/N=C/c4ccc(N5CCCC5)cc4)ncnc32)[C@H](O)[C@@H]1O` [Compound 11, (2R,3S,4R,5R)-2-(hydroxymethyl)-5-{6-{2-[(E)-4-(pyrrolidin-1-yl)benzylidene]hydrazino}-9H-purin-9-yl}tetrahydrofuran-3,4-diol] in this work.
A Ki (A2A adenosine receptor) of 945 nM and a melting point of 160 °C were found for `OC[C@H]1O[C@@H](n2cnc3c(N/N=C/c4ccc[nH]4)ncnc32)[C@H](O)[C@@H]1O` [Compound 1, (2R,3R,4S,5R)-2-{6-{2-[(E)-(1H-pyrrol-2-yl)methylene]hydrazino}-9H-purin-9-yl}-5-(hydroxymethyl)tetrahydrofuran-3,4-diol] in this work.
A Ki (A2A adenosine receptor) of 1900 nM and a melting point of 170 °C were found for `OC[C@H]1O[C@@H](n2cnc3c(N/N=C/c4ccc(-c5ccccc5)cc4)ncnc32)C(O)C1O` (stereo partly shown) [Compound 10] in this work.
A Ki (A2A adenosine receptor) of 86.6 nM and a melting point of 132 °C were found for `OC[C@H]1O[C@@H](n2cnc3c(N/N=C/C4CCCCC4)ncnc32)[C@H](O)[C@@H]1O` [Compound 22, (2R,3R,4S,5R)-2-{6-{2-[(E)-cyclohexylmethylene]hydrazino}-9H-purin-9-yl}-5-(hydroxylmethyl)tetrahydrofuran-3,4diol] in this work.
For `OC[C@H]1O[C@@H](n2cnc3c(N/N=C/c4cncs4)ncnc32)[C@H](O)[C@@H]1O` [Compound 16, (2R,3S,4R,5R)-2-(hydroxymethyl)-5-{6-{2-[(E)-thiazol-5-yl-methylene]hydrazino}-9H-purin-9-yl}tetrahydrofuran-3,4-diol], the “hA2AAR agonist function (in words)” value ([1]; conclusion from cAMP test) was “hA2AAR agonists”, the EC50 ([1]; hADORA2A-HEK293 cells, 300 cells/well, stimulation of cyclic adenosine monophosphate) was 43.5 nM and the Ki (A2A adenosine receptor) was 15.8 nM. For the same compound, the melting point was 224 °C.
A Ki (A2A adenosine receptor) of 2150 nM and a melting point of 94 °C were found for `CSCC/C=N/Nc1ncnc2c1ncn2[C@@H]1O[C@H](CO)C(O)C1O` (stereo partly drawn) [Compound 2, (2R,3S,4R,5R)-2-(hydroxymethyl)-5-{6-{2-[(E)-3-(methylthio)propylene]hydrazino}-9H-purin-9-yl}tetrahydrofuran-3,4-diol] in this work.
A Ki (A2A adenosine receptor) greater than 10000 nM and a melting point of 186 °C were found for `OC[C@H]1O[C@@H](n2cnc3c(N/N=C/c4ccc(OCc5ccccc5)c(OCc5ccccc5)c4)ncnc32)C(O)C1O` (stereo partly shown) [Compound 4] in this work.
A Ki (A2A adenosine receptor) of 4590 nM and a melting point of 236 °C were found for `OC[C@H]1O[C@@H](n2cnc3c(N/N=C/c4ccc(-c5ccccn5)cc4)ncnc32)[C@H](O)[C@@H]1O` [Compound 9, (2R,3S,4R,5R)-2-(hydroxymethyl)-5-{6-{2-[(E)-4-(pyridin-2-yl)benzylidene]hydrazino}-9H-purin-9-yl}tetrahydrofuran-3,4-diol] in this work.
A Ki (A2A adenosine receptor) of 520 nM and a melting point of 182 °C were found for `OC[C@H]1O[C@@H](n2cnc3c(N/N=C/c4ccc(C(F)(F)F)cc4)ncnc32)[C@H](O)[C@@H]1O` [Compound 14, (2R,3S,4R,5R)-2-(hydroxymethyl)-5-{6-{2-[(E)-4-(trifluoromethyl)benzylidene]hydrazino}-9H-purin-9-yl}tetrahydrofuran-3,4-diol] in this work.
A Ki (A2A adenosine receptor) of 4470 nM and a melting point of 202 °C were found for `CCCOc1ccc(/C=N/Nc2ncnc3c2ncn3[C@@H]2O[C@H](CO)[C@@H](O)[C@H]2O)cc1` [Compound 13, (2R,3S,4R,5R)-2-(hydroxymethyl)-5-{6-{2-[(E)-4-propoxybenzylidene]hydrazino}-9H-purin-9-yl}tetrahydrofuran-3,4-diol] in this work.
A Ki (A2A adenosine receptor) of 998 nM and a melting point of 178 °C were found for `CCCCc1nc(/C=N/Nc2ncnc3c2ncn3[C@@H]2O[C@H](CO)[C@@H](O)[C@H]2O)c(Cl)[nH]1` [Compound 20, (2R,3R,4S,5R)-2-{6-{2-[(E)-(2-butyl-5-chloro-1H-imidazol-4-yl)methylene]hydrazino}-9H-purin-9-yl}-5-(hydroxymethyl)tetrahydrofuran-3,4-diol] in this work.
A Ki (A2A adenosine receptor) of 236 nM and a melting point of 140 °C were found for `OC[C@H]1O[C@@H](n2cnc3c(N/N=C/c4cccc(OCc5ccccc5)c4)ncnc32)[C@H](O)[C@@H]1O` [Compound 8, (2R,3R,4S,5R)-2-{6-{2-[(E)-3-(benzyloxy)benzylidene]hydrazino}-9H-purin-9-yl}-5-(hydroxymethyl)tetrahydrofuran-3,4-diol] in this work.
A Ki (A2A adenosine receptor) of 1.2 nM and a melting point of 200 °C were found for `OC[C@H]1O[C@@H](n2cnc3c(N/N=C/c4ccc(C(F)(F)F)cc4C(F)(F)F)ncnc32)[C@H](O)[C@@H]1O` [Compound 6, (2R,3R,4S,5R)-2-{6-{2-[(E)-2,4-bis(trifluoromethyl)benzylidene]hydrazino}-9H-purin-9-yl}-5-(hydroxymethyl)tetrahydrofuran-3,4-diol] in this work.
A Ki (A2A adenosine receptor) of 5580 nM and a melting point of 160 °C were found for `OC[C@H]1O[C@@H](n2cnc3c(N/N=C/c4ccc(N(c5ccccc5)c5ccccc5)cc4)ncnc32)C(O)C1O` (stereo partly shown) [Compound 19] in this work.
A Ki (A2A adenosine receptor) of 1.2 nM and a melting point of 178 °C were found for `CCCCC/C=C/C=C/C=N/Nc1ncnc2c1ncn2[C@@H]1O[C@H](CO)[C@@H](O)[C@H]1O` [Compound 21, (2R,3R,4S,5R)-2-{6-{2-[(1E,2E,4E)-deca-2,4-dien-1-ylidene]hydrazino}-9H-purin-9-yl}-5(hydroxymethyl)tetrahydrofuran-3,4-diol] in this work.
